The target of experiment [1] is T1, Steroid 17-alpha-hydroxylase/17,20 lyase (Rattus norvegicus, UniProt P11715).
T1 sequence (P11715 whole entry): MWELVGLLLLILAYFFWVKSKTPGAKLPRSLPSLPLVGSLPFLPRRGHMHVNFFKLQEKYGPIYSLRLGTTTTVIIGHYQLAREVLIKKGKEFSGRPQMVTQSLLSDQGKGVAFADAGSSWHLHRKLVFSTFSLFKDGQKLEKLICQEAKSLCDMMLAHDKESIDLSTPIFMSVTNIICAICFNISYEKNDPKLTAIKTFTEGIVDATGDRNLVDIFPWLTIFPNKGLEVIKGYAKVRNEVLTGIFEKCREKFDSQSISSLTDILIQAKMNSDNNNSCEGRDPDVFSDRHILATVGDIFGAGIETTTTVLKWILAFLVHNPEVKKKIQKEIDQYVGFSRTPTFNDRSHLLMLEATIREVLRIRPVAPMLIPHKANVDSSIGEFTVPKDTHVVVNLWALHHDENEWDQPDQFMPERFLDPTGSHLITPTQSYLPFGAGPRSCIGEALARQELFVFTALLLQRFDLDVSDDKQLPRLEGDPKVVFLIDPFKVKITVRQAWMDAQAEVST
Description: Inhibition of rat testis 17-alpha-hydroxylase component of P450-17alpha.

The target of experiment [2] is T1, Steroid 17-alpha-hydroxylase/17,20 lyase. Nature of the experiment: Inhibition of rat testis 17,20 lyase component of P450-17alpha at 10 uM.
For experiment [3] the target is unchanged. Description: Inhibition of rat testis 17-alpha-hydroxylase component of P450-17alpha at 10 uM.
Experiment [4] shares this target. Nature of the experiment: Inhibition of rat testis 17,20 lyase component of P450-17alpha.

The values that follow come from ChEMBL document CHEMBL1149361, “Synthesis, biochemical evaluation and rationalisation of the inhibitory activity of a range of 4-substituted phenyl alkyl imidazole-based inhibitors of the enzyme complex 17alpha-hydroxylase/17,20-lyase (P450(17alpha))” (Bioorg Med Chem Lett, 2006).

The IC50 is the concentration at which inhibition is half-maximal. High values mean a need for much substance, low ones inhibition by little substance. A word on the inhibition: it is the drop in the measured response relative to a control, in per cent. A higher inhibition goes with a strong effect.

Take `Brc1ccc(CCn2ccnc2)cc1`: in experiment [1], the IC50 was determined as 30.7 µM. Also, the inhibition at 10 µM in experiment [2] was 61.5%; in experiment [3], 37.5%.
Consider `c1ccc(CCCn2ccnc2)cc1`, for which the figures for the IC50 in experiment [1] and in experiment [4] were 30.9 µM and 6.14 µM, respectively. For the same compound, the inhibition at 10 µM in experiment [2] was 40%; in experiment [3], 23.4%.
Consider `c1ccc(Cn2ccnc2)cc1`, for which the values for the IC50 in experiment [1] and in experiment [4] were 154 µM and 50.9 µM, respectively. In addition, the inhibition at 10 µM in experiment [2] was determined as 12.6%; in experiment [3], 13.5%.
For `Clc1ccc(Cn2ccnc2)cc1`, the IC50 came to 29.8 µM in experiment [1] and 4.94 µM in experiment [4]. Further, the values for the inhibition at 10 µM in experiment [2] and in experiment [3] were 73.7% and 45.7%, respectively.
In the case of `CC(=O)N1CCN(c2ccc(OCC3COC(Cn4ccnc4)(c4ccc(Cl)cc4Cl)O3)cc2)CC1` (stereo not given) [KETOCONAZOLE], the figures for the inhibition at 10 µM in experiment [2] and in experiment [3] were 78.7% and 61.5%, respectively.
The like results for `c1ccc(CCn2ccnc2)cc1` were, in that order, 6.36% and 10.6%.
`Fc1ccc(CCn2ccnc2)cc1` showed an IC50 in experiment [1] of 120 µM. The inhibition at 10 µM in experiment [2] came out at 45.1%; in experiment [3], 22.5%.
For `Fc1ccc(CCCn2ccnc2)cc1`, the IC50 is 27.8 µM in experiment [1] and 1.96 µM in experiment [4]. For the same compound, the inhibition at 10 µM amounted to 73.2% in experiment [2] and 40.8% in experiment [3].
Taken in the same sequence, the figures for `Brc1ccc(CCCn2ccnc2)cc1` were 2.95 µM, 0.33 µM, 86.3% and 70.2%.
The like results for `Fc1ccc(Cn2ccnc2)cc1` were, in that order, 96.5 µM, 11.3 µM, 51% and 20.5%.
Taken in the same sequence, the figures for `Clc1ccc(CCCn2ccnc2)cc1` were 5.85 µM, 0.55 µM, 80.8% and 71%.
As to `Clc1ccc(CCn2ccnc2)cc1`, in experiment [1], half-maximal inhibition (IC50) was put at 49.6 µM. Besides, the inhibition at 10 µM in experiment [2] turned out to be 57.4%; in experiment [3], 28.4%.
For `Brc1ccc(Cn2ccnc2)cc1`, the half-inhibitory concentration (IC50) in experiment [1] was 16.6 µM; in experiment [4], 2.85 µM. Further, the inhibition at 10 µM stood at 76.2% in experiment [2] and 49.3% in experiment [3].
